Assay results published in patent US9611251B2, “Substituted piperidine compounds and their use as orexin receptor modulators” (Janssen Pharmaceutica NV, priority 2013, dated 2017).

Assays:
human orexin 1 receptor = human orexin 1 receptor (Homo sapiens, UniProt O43613); assay: Human orexin 1 receptor radioligand binding; settings: human orexin 1 receptor radioligand binding; averages of 2-20 runs; read-out: hOX1 Ki
Protocol: The in vitro affinity of the compounds of the invention for the rat/human orexin 1 and human orexin 2 receptors was determined by competitive radioligand binding using [^3H](1-(5-(2-fluoro-phenyl)-2-methyl-thiazol-4-yl)-1-((S)-2-(5-phenyl-(1,3,4)oxadiazol-2-ylmethyl)-pyrrolidin-1-yl)-methanone) (Langmead et al., 2004) and [^3H]EMPA (n-ethyl-2[96-methoxypyridin-3-yl)-(toluene-2-sulfonyl)-amino]-N-pyridin-3-ylmethyl acetamide), respectively (Langmead et al., 2004, British Journal of Pharmacology 141:340-346; Malherbe et al., 2004, British Journal of Pharmacology 156:1326-41).
(§1) Data are analyzed using pc-Sandy macro and graphed on Graphpad Prism 5. For analysis, each concentration point is averaged from triplicate values and the averaged values are plotted on Graphpad Prism. The IC50 was determined by applying the following equation (GraphPad Prism 5.0, SanDiego) for one site competition where X=log (concentration) and Y=specific binding. Top denotes the total [^3H]-(1-(5-(2-fluoro-phenyl)-2-methyl-thiazol-4-yl)-1-((S)-2-(5-phenyl-(1,3,4)oxadiazol-2-ylmethyl)-pyrrolidin-1-yl)-methanone) binding, bottom denotes the nonspecific [^3H]-(1-(5-(2-fluoro-phenyl)-2-methyl-thiazol-4-yl)-1-((S)-2-(5-phenyl-(1,3,4)oxadiazol-2-ylmethyl)-pyrrolidin-1-yl)-methanone) binding. Graphpad Prism calculates Ki value from IC50 and the pre-determined Kd values for [^3H]-(1-(5-(2-fluoro-phenyl)-2-methyl-thiazol-4-yl)-1-((S)-2-(5-phenyl-(1,3,4)oxadiazol-2-ylmethyl)-pyrrolidin-1-yl)-methanone) and [3H]-EMPA. The Ki for each compound is then uploaded into 3DX. Each run comprises individual compounds in triplicate.
(§2) Rat and Human Orexin 1 Receptor Radioligand Binding Studies
Human Embryonic Kidney 293 cells (HEK293) stably expressing rat orexin 1 receptor (Genebank accession number NM_001525) or Chinese ovary cells (CHO) stably expressing human orexin 1 receptor (Genebank accession number NM_001526) were grown to confluency in DMEM (Hyclone, cat #SH30022), 10% FBS, 1×Pen/Strep, 1× sodium pyruvate, 10 mM HEPES, 600 μg/mL G418 and DMEM/F12 (Gibco, Cat #11039), 10% FBS, 1×Pen/Strep, 600 μg/mL G418 media, respectively on 150 cm^2 tissue culture plates, washed with 5 mM EDTA in PBS (HyClone Dulbecco's Phosphate Buffered Saline 1× with Calcium and Magnesium, Cat #SH30264.01, hereafter referred to simply as PBS) and scraped into 50 ml tubes. After centrifugation (2K×G, 5 min at 4° C.), the supernatant was aspirated and the pellets frozen and stored at −80° C. Cells were resuspended in PBS in the presence of 1 tablet of protease inhibitor cocktail (Roche, Cat. #11836145001) per 50 mL. Each cell pellet from a 15 cm plate was resuspended in 10 mL, stored on ice, and homogenized for 45 sec prior to addition to the reactions. Competition binding experiments in 96 well polypropylene plates were performed using [^3H]-(1-(5-(2-fluoro-phenyl)-2-methyl-thiazol-4-yl)-1-((S)-2-(5-phenyl-(1,3,4)oxadiazol-2-ylmethyl)-pyrrolidin-1-yl)-methanone) (Moraveck Corporation, specific activity=35.3 Ci/mmol), diluted to a 10 nM concentration in PBS (4 nM final). […] The final concentration of DMSO in the reactions is equal to or less than 0.1%. Total and nonspecific binding was determined in the absence and presence of 10 μM almorexant. The total volume of each reaction is 200 μL (20 μL of diluted compounds, 80 μL of [^3H]-(1-(5-(2-fluoro-phenyl)-2-methyl-thiazol-4-yl)-1-((S)-2-(5-phenyl-(1,3,4)oxadiazol-2-ylmethyl)-pyrrolidin-1-yl)-methanone) diluted in PBS and 100 μL of the cell suspension). Reactions were run for 60 min at room temperature and terminated by filtration through GF/C filter plates (PerkinElmer, Cat. #6005174) presoaked in 0.3% polyethylenimine using the cell harvester (PerkinElmer Filtermate). The plates were washed 3 times by aspirating 30 ml PBS through the plates. Plates were dried in 55° C. oven for 60 min, scintillation fluid was added, and the radioactivity was counted on a Topcount (Packard).

rat orexin 1 receptor = rat orexin 1 receptor (Rattus norvegicus, UniProt P56718); assay: Rat orexin 1 receptor radioligand binding; settings: rat orexin 1 receptor radioligand binding; averages of 2-20 runs; read-out: rOX1 Ki
Protocol: as §1, §2
After centrifugation (2K×G, 5 min at 4° C.), the supernatant was aspirated and the pellets frozen and stored at −80° C. […] Each cell pellet from a 15 cm plate was resuspended in 10 mL, stored on ice, and homogenized for 45 sec prior to addition to the reactions. Competition binding experiments in 96 well polypropylene plates were performed using [^3H]-(1-(5-(2-fluoro-phenyl)-2-methyl-thiazol-4-yl)-1-((S)-2-(5-phenyl-(1,3,4)oxadiazol-2-ylmethyl)-pyrrolidin-1-yl)-methanone) (Moraveck Corporation, specific activity=35.3 Ci/mmol), diluted to a 10 nM concentration in PBS (4 nM final). […] The final concentration of DMSO in the reactions is equal to or less than 0.1%. Total and nonspecific binding was determined in the absence and presence of 10 μM almorexant. The total volume of each reaction is 200 μL (20 μL of diluted compounds, 80 μL of [^3H]-(1-(5-(2-fluoro-phenyl)-2-methyl-thiazol-4-yl)-1-((S)-2-(5-phenyl-(1,3,4)oxadiazol-2-ylmethyl)-pyrrolidin-1-yl)-methanone) diluted in PBS and 100 μL of the cell suspension). […] The plates were washed 3 times by aspirating 30 ml PBS through the plates. Plates were dried in 55° C. oven for 60 min, scintillation fluid was added, and the radioactivity was counted on a Topcount (Packard).

human orexin 2 receptor = human orexin 2 receptor (Homo sapiens (Human), UniProt O43614); assay: Human orexin 2 receptor radioligand binding ([3H]-EMPA); settings: averages of 2-20 runs, read-out: hOX2 Ki
Protocol: as §1
Human Orexin 2 Receptor Radioligand Binding Studies
HEK293 stably expressing human orexin 2 receptor (Genebank accession number NM_001526) were grown to confluency in DMEM (Hyclone, cat #SH30022), 10% FBS, 1×Pen/Strep, 1× NaPyruvate, 10 mM HEPES, 600 ug/ml G418 media on 150 cm^2 tissue culture plates, washed with 5 mM EDTA in PBS (HyClone Dulbecco's Phosphate Buffered Saline 1× with Calcium and Magnesium, Cat #SH30264.01, hereafter referred to simply as PBS) and scraped into 50 ml tubes. After centrifugation (2K×G, 5 min at 4° C.), the supernatant was aspirated and the pellets frozen and stored at −80° C. […] Each cell pellet from a 15 cm plate was resuspended in 10 mL, stored on ice, and homogenized for 45 sec just prior to addition to the reactions. Competition binding experiments in 96 well polypropylene plates were performed using [^3H]-EMPA (Moraveck Corporation, specific activity=29.6 Ci/mmol), diluted to a 5 nM concentration in PBS (2 nM final concentration). […] The final concentration of DMSO in the reactions is equal to or less than 0.1%. Total and nonspecific binding was determined in the absence and presence of 10 μM almorexant. The total volume of each reaction is 200 μL (20 μL of diluted compounds, 80 μL of [^3H]-EMPA diluted in PBS and 100 μL of the cell suspension). […] The plates were washed 3 times by aspirating 30 ml PBS through the plates. Plates were dried in 55° C. oven for 60 min, scintillation fluid was added, and the radioactivity was counted on a Topcount (Packard).

Sequence of human orexin 2 receptor (O43614 whole entry): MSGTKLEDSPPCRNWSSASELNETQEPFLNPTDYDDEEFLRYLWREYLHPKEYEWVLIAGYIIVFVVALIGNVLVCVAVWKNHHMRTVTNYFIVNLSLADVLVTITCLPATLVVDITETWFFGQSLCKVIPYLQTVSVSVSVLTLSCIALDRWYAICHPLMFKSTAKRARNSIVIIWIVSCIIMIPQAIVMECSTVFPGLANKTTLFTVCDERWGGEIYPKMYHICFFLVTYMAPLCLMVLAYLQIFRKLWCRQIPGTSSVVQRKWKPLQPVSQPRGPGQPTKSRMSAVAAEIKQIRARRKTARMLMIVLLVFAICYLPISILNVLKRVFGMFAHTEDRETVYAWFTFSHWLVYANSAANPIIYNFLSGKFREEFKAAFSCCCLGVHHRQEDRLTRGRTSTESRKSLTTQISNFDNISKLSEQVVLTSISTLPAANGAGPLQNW

Structure (SMILES) | Ki (human orexin 1 receptor) [nM] | Ki (rat orexin 1 receptor) [nM] | Ki (human orexin 2 receptor) [nM]
Cc1cnc(C(=O)N2CCC[C@@H](N(C)c3nc4ccccc4o3)[C@@H]2C)c(-n2nccn2)c1 (relative stereo) [Example 187, ((2S*,3R*)-3-(benzo[d]oxazol-2-yl(methyl)amino)-2-methylpiperidin-1-yl)(5-methyl-3-(2H-1,2,3-triazol-2-yl)pyridin-2-yl)methanone] | 39 | 20 | 
Cc1noc(-c2cc(F)ccc2C(=O)N2CCC[C@@H](Nc3ccc(C(F)(F)F)cn3)[C@@H]2C)n1 (relative stereo) [Example 190, (4-fluoro-2-(3-methyl-1,2,4-oxadiazol-5-yl)phenyl)((2S*,3R*)-2-methyl-3-((5-(trifluoromethyl)pyridin-2-yl)amino)piperidin-1-yl)methanone] | 18 | 26 | 
Cc1cnc(-n2nccn2)c(C(=O)N2CCC[C@@H](Oc3ncc(C(F)(F)F)cn3)[C@@H]2C)c1 [Example 176, (5-methyl-2-(2H-1,2,3-triazol-2-yl)pyridin-3-yl)((2S,3R)-2-methyl-3-((5-(trifluoromethyl)pyrimidin-2-yl)oxy)piperidin-1-yl)methanone] |  | 374 | > 10000
Cc1noc(-c2cc(F)ccc2C(=O)N2CCC[C@@H](Nc3ncc(C(F)(F)F)cn3)[C@@H]2C)n1 (relative stereo) [Example 197, (4-fluoro-2-(3-methyl-1,2,4-oxadiazol-5-yl)phenyl)((2S*,3R*)-2-methyl-3-((5-(trifluoromethyl)pyrimidin-2-yl)amino)piperidin-1-yl)methanone] |  | 332 | 6600
Cc1cnc(-n2nccn2)c(C(=O)N2CCC[C@@H](Oc3ncc(Cl)cn3)[C@@H]2C)c1 [Example 162, ((2S,3R)-3-((5-chloropyrimidin-2-yl)oxy)-2-methylpiperidin-1-yl)(5-methyl-2-(2H-1,2,3-triazol-2-yl)pyridin-3-yl)methanone] |  | 621 | > 10000
COc1ccc(C(=O)N2CCC[C@@H](Nc3ccc(C(F)(F)F)cn3)[C@@H]2C)c(Cl)n1 (relative stereo) [Example 193, (2-chloro-6-methoxypyridin-3-yl)((2S*,3R*)-2-methyl-3-((5-(trifluoromethyl)pyridin-2-yl)amino)piperidin-1-yl)methanone] |  | 1100 | > 10000
C[C@H]1[C@H](Oc2cnc(C(F)(F)F)cn2)CCCN1C(=O)c1nccnc1-c1ccccc1 [Example 173, ((2S,3R)-2-methyl-3-((5-(trifluoromethyl)pyrazin-2-yl)oxy)piperidin-1-yl)(3-phenylpyrazin-2-yl)methanone] |  | 423 | 8200
COc1ccc(C(=O)N2CCC[C@@H](Oc3cnc(C(F)(F)F)cn3)[C@@H]2C)c(-n2nccn2)c1 [Example 172, (4-methoxy-2-(2H-1,2,3-triazol-2-yl)phenyl)((2S,3R)-2-methyl-3-((5-(trifluoromethyl)pyrazin-2-yl)oxy)piperidin-1-yl)methanone] |  | 447 | > 10000
COc1ccc(C(=O)N2CCC[C@@H](Nc3ncc(Cl)cn3)[C@@H]2C)c(-n2nccn2)c1 (relative stereo) [Example 185, ((2 S*,3R*)-3-((5-chloropyrimidin-2-yl)amino)-2-methylpiperidin-1-yl)(4-methoxy-2-(2H-1,2,3-triazol-2-yl)phenyl)methanone] |  | 259 | 8600
C[C@H]1[C@H](Nc2ncc(C(F)(F)F)cn2)CCCN1C(=O)c1ccc(F)cc1-c1ncco1 (relative stereo) [Example 205, (4-fluoro-2-(oxazol-2-yl)phenyl)((2S*,3R*)-2-methyl-3-((5-(trifluoromethyl)pyrimidin-2-yl)amino)piperidin-1-yl)methanone] |  | 411 | 5800
Cc1ccc(C(=O)N2CCC[C@@H](Nc3nnc(C(F)(F)F)s3)[C@@H]2C)c(-n2nccn2)n1 (relative stereo) [Example 196, (6-methyl-2-(2H-1,2,3-triazol-2-yl)pyridin-3-yl)((2S*,3R*)-2-methyl-3-((5-(trifluoromethyl)-1,3,4-thiadiazol-2-yl)amino)piperidin-1-yl)methanone] |  | 1800 | > 10000
C[C@H]1[C@H](Oc2ncc(C(F)(F)F)cn2)CCCN1C(=O)c1nccnc1-c1ccccc1 [Example 178, ((2S,3R)-2-methyl-3-((5-(trifluoromethyl)pyrimidin-2-yl)oxy)piperidin-1-yl)(3-phenylpyrazin-2-yl)methanone] |  | 679 | > 10000
C[C@H]1[C@H](Oc2cnc(C(F)(F)F)cn2)CCCN1C(=O)c1cccnc1-n1nccn1 [Example 148, (2-(2H-1,2,3-triazol-2-yl)pyridin-3-yl)((2S,3R)-2-methyl-3-((5-(trifluoromethyl)pyrazin-2-yl)oxy)piperidin-1-yl)methanone] |  | 3400 | > 10000
